Test results reported in patent US6235716A, “Multivalent ligands which modulate angiogenesis” (Children's Medical Center Corporation, priority 1999, dated 2001).
No end group written: not given here.

Legend:
[1] = system: B16 melanoma tumors; assay: Multivalent ligands modulate B16 melanoma tumor growth in mice; type: in vivo; details: C57BL or CBF1 mice; S.C. injection remote from tumor, 20-30 mg/kg body weight/day for two weeks, started one week after tumor inoculation
Protocol: B16 melanoma cells were injected into 7-8 week old female C57BL mice or CBF1 mice, S.C., 2×10^5 cells per mouse, in 0.1 ml volume. One week after the tumor innoculation, the treatment was started by S.C. injection at sites remote from the tumor of the indicated multivalent ligand at a dose 20-30 mg/kg body weight/day for a period of two weeks. Tumors were measured with a dial-caliper and volumes were determined using the formula: (width)^2×length×0.52. Each group (experimental or control) contained 5-6 mice. FIGS. 6-9 depict changes in mean tumor-volume over time.

[2] = system: bovine aortic endothelial cells (A19 cells); assay: Proliferation of bovine aortic endothelial cells in vitro (methylene blue staining, O.D. 630 nm); type: cell-based; details: increasing concentrations (μg/ml), 72-80 hours incubation, medium with 1 ng/ml basic fibroblast growth factor; relative to untreated cells
Protocol: The experiments were performed using 96 well, flat bottom, tissue culture microtiter plates. Culture medium was prepared from DMEM, penicillin (100 U/ml), streptomycin (100 μg/ml), glutamine (2 mM), 10% endotoxin free bovine calf serum (Hyclone) and 1 ng/ml of basic fibroblast growth factor (any commericial source).
Bovine aortic endothelial cells (referred to herein as "A19 cells") were obtained by procedures disclosed in Gospodorowicz et al., Proc. Natl. Acad. Sci. USA 73:4120 (1976), the entire teachings of which are incorporated herein by reference. An A19 cell suspension at 25×10^3 cells/ml was prepared in the above described culture medium and distributed 0.160 ml/well (about 4000 endothelial cells/well).
Multivalent ligand peptides Tip-18.40 and Tip-19.40 stock solutions was prepared by diluting a 10 mM solution of the HJ peptide in 100% DMSO with phosphate buffered saline (PBS)containing 0.1% BSA. The concentration of HJ peptide in each stock solution was adjusted to nine times the desired concentration of the HJ peptide in the assay mixture. 0.020 ml of each HJ peptide stock solution was added to the corresponding wells about 2 hours after BCE plating, with six replicates for each concentration. […]
The wells were washed one time with borate buffer (0.1 M, pH 8.5). […] After extracting overnight, the O.D. was read at 630 nm to determine the relative number of cells per well. […]

Substance	effect on B16 melanoma tumor growth (mean tumor volume over time versus vehicle control) [1]	effect on proliferation of bovine aortic endothelial cells in vitro [2]
Tip-14.40: four-branch pennant polylysine trimer; four TSP-1/endostatin hybrid peptides of SEQ ID NO.: 3 attached by covalent bond (Ac-TFRAFLSSRLQTGFIRVVMYEG; also: four copies on branched polylysine core)	weak, but statistically significant inhibition	–
Tip-19.40: four-branch pennant polylysine trimer; four hybrid peptides of SEQ ID NO.: 12 attached via -Gly-Gly- linker (Ac-KDFTAYRWRLSHRPKDLYSIVRRADR; not fully specified; printed as Ac-KDFTAYRWRLSHRPKDLYSIVRRADR; also: four copies on polylysine core via Gly-Gly linker)	suppressed tumor growth	inhibit the proliferation
Tip-17.40: four-branch pennant polylysine trimer; four hybrid peptides of SEQ ID NO.: 9 attached via -Gly-Gly- linker (Ac-TAYRWRLSHRPKDLYSIVRRADR; not fully specified; printed as Ac-TAYRWRLSHRPKDLYSIVRRADR; also: four copies on polylysine core via Gly-Gly linker)	promoted tumor growth	–
Tip-15.40: four-branch pennant polylysine trimer; four TSP-1/endostatin hybrid peptides of SEQ ID NO.: 4 attached by covalent bond (Ac-AYRWRLSHRPKDLYSIVRRADG; also: four copies on branched polylysine core)	weak, but statistically significant inhibition	–
Tip-18.40: four-branch pennant polylysine trimer; four hybrid peptides of SEQ ID NO.: 11 attached via -Gly-Gly- linker (Ac-RWRLSHRPKDLYSIVRRADR; not fully specified; printed as Ac-RWRLSHRPKDLYSIVRRADR; also: four copies on polylysine core via Gly-Gly linker)	suppressed tumor growth	inhibit the proliferation
Tip-12.40: four-branch pennant polylysine trimer; four peptides of SEQ ID NO.: 7 (endostatin AHR derivative) attached by covalent bond (Ac-TFRAFLSSRLQDLYSIVRRADG; also: four copies on branched polylysine core)	suppressed tumor growth	–
Tip-13.40: four-branch pennant polylysine trimer; four peptides of SEQ ID NO.: 8 (TSP-1 AHR derivative) attached by covalent bond (Ac-AYRWRLSHRPKTGFIRVVMYEG; also: four copies on branched polylysine core)	suppressed tumor growth	–
Tip-16.40: four-branch pennant polylysine trimer; four hybrid peptides of SEQ ID NO.: 10 attached via -Gly-Gly- linker (Ac-AYRWRLSHRPKDLYSIVRRADR; not fully specified; printed as Ac-AYRWRLSHRPKDLYSIVRRADR; also: four copies on polylysine core via Gly-Gly linker)	suppressed tumor growth	–
